One assay concerns xenograft tumor models. As to the kind of experiment: Xenograft tumor models. The settings on record: in vivo.
Assay [1] deals with murine pancreatic neuroendocrine tumor model. As to the kind of experiment: Murine pancreatic neuroendocrine tumor model. The settings on record: mouse, in vivo.
For assay [2], the system named is CRPC patients with evidence of bone metastases. Put plainly: Adaptive phase 2 trial (NCT00940225), case studies of the first three CRPC patients with bone metastases. It is filed as in vivo, human. The settings on record: for PSA / serum tALP levels: Week 18. As for the experimental part: In 2000, local disease recurrence was treated with radiation therapy. […] CAB with leuprolide and bicalutamide was initiated. […] All patients provided informed consent before study screening.

`COc1cc2nccc(Oc3ccc(NC(=O)C4(C(=O)Nc5ccc(F)cc5)CC4)cc3)c2cc1OC` [Compound 1, N-(4-{[6,7-bis(methyloxy)quinolin-4-yl]oxy}phenyl)-N′-(4-fluorophenyl)cyclopropane-1,1-dicarboxamide]: the “effect on tumors in xenograft tumor models” value in the assay on xenograft tumor models is reported as “tumor regression”. Moreover, in assay [1], the overall survival entry is recorded as “substantially improves”. The “tumor invasiveness and metastasis” value in assay [1] is listed as “significantly reduces”. For the same compound, in assay [2] (Patient 1, Week 2 compared with baseline), the increase in hemoglobin came out at 1.4 g/dL. Also, in assay [2] (Patient 1, Week 6), the “radiotracer uptake by bone metastases on bone scan” value is on record as “dramatic decrease”. Besides, the bone lesions entry in assay [2] (Patient 1, Week 12) was “near complete resolution”; in assay [2] (three metastatic CRPC patients, summary), “near complete resolution”. For the same compound, the PSA in assay [2] (Patient 1, 430 ng/mL at baseline) is listed as 93.5 ng/mL; in assay [2] (Patient 2, subsequent to crossing over to Compound 1 from placebo) it was 2 fold of baseline; in assay [2] (Patient 3, 2.4 ng/mL at screening), 1.2 ng/mL. Further, the “serum tALP levels” value in assay [2] (Patient 1, 689 U/L at baseline) came to 159 U/L; in assay [2] (Patient 3, 869 U/L at baseline) it was 197 U/L. Moreover, the bone pain result in assay [2] (Patient 1, four weeks after start) was “significant reduction”; in assay [2] (Patient 2, Week 4), “reduction”. Besides, in assay [2] (Patient 2, Week 6), the “radiotracer uptake by bone lesions on bone scan” value is recorded as “slight flair”. Moreover, the radiotracer uptake entry in assay [2] (Patient 2, Week 12) was “substantial reduction”. Further, the hemoglobin increase in assay [2] (Patient 2, Week 12 compared with baseline) amounted to 1.8 g/dL; in assay [2] (Patient 3, Week 2 compared with baseline) it was 2.2 g/dL. The PSA peak in assay [2] (Patient 2, Week 16, after placebo Week 12 to 15, crossed over to Compound 1 at Week 15) is recorded as ~6 fold of baseline. In addition, the “radiotracer uptake on bone scan” value in assay [2] (Patient 3, Week 6) is listed as “dramatic reduction”. For the same compound, in assay [2] (Patient 3, Week 12), the “bone lesions on bone scan” value is listed as “complete resolution”. Moreover, the pain entry in assay [2] (Patient 3, after three weeks) is on record as “complete resolution”. For the same compound, in assay [2] (all three patients, summary), the “uptake of radiotracer on bone scan” value is “striking decrease”.
